Laboratory results as given in patent US11945808B2, “Substituted cyclohexyl compounds as NOP inhibitors” (Dart NeuroScience, LLC, priority 2018, dated 2024).

What follows are molecules tested against human opioid NOP (Homo sapiens, UniProt P41146) (assay: Cell-based NOP cAMP assay (LANCE cAMP, TR-FRET)). Conditions: antagonism of nociceptin in cAMP assay, cells expressing human NOP, forskolin-stimulated; values given as ranges; read-out: NOP (pIC50) (converted).
Protocol: Formula (I) compounds were tested for antagonism of the nociceptin receptor (NOP) in a cell-based cAMP assay, using the LANCE cAMP Detection Kit, Perkin Elmer (Waltham, MA). This assay (LANCE cAMP) is a homogeneous, time-resolved fluorescence resonance energy transfer (TR-FRET) immunoassay designed to measure cAMP produced upon modulation of adenylyl cyclase activity by G protein-coupled receptors (GPCRs).
Cells expressing human opioid NOP (ValiScreen cell line, cat #ES-230-C Perkin Elmer (Waltham, MA) were dispensed in simulation buffer (5 mM Hepes, 0.1% BSA, 0.5 mM IBMX in Hanks Buffered Saline Solution) at 2.5 μL cells per well (400 cells/well) into a 1536 white TC-treated assay plate. Compound was then added and plates were incubated for 15 minutes at room temperature. To each well was added 2.5 μL of a solution containing forskolin (3 μM final) and nociceptin peptide ([…] final) diluted in stimulation buffer, and the plates were incubated for 30 minutes at room temperature. To each well was dispensed 5 μL of LANCE Ultra detection (1:300 dilution of anti-cAMP ULight with a 1:100 dilution of Eu-cAMP tracer diluted in cAMP Detection Buffer) reagent, and the plates were incubated for 1 hr at room temperature. The plate was then read on the ViewLux microplate reader (Perkin Elmer, Waltham, MA) using the LANCE 1536 protocol with 60 second exposure times and 50 μs delay. This protocol has an excitation wavelength of 340 nm (DUG11 filter) and emission wavelengths of 615 nm (Eu-Donor) and 665 nm (Alexa 647 cAMP antibody acceptor).
Data was analyzed, normalized, and visualized using ACAS (John McNeil & Co.). Efficacy was calculated using activity of the vehicle (DMSO) as 0% efficacy and the activity of the corresponding reference positive control (SCH 221510, Tocris Bioscience (Pittsburgh, PA), Catalog number 3240) as 100% efficacy. Activity was calculated as the ratio of donor and acceptor emissions. All curve fits and IC50 determinations were performed using a non-linear regression model. The IC50 value was measured as the concentration at which half-maximal response was calculated.

human opioid NOP, sequence (P41146 whole entry): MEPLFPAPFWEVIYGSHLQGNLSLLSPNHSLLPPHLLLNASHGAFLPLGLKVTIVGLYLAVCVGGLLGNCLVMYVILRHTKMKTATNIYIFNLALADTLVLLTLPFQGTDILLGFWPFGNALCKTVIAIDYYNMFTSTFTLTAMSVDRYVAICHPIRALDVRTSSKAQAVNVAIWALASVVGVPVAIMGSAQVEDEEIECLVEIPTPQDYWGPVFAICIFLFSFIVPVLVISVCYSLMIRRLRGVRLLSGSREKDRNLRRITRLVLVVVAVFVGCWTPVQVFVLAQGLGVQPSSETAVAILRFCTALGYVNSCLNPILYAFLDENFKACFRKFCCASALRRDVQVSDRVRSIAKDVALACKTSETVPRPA

First: O=C1CC(NCC[C@H]2CC[C@H](c3ccc(F)cc3Cl)CC2)CCN1 (mixture of isomers) [Example 163, Racemic-4-({2-[(trans)-4-(2-Chloro-4-fluorophenyl)cyclohexyl]ethyl}amino)piperidin-2-one]
Second: Fc1ccc([C@H]2CC[C@@H](CCNC3CCOCC3F)CC2)c(Cl)c1 (single isomer, unassigned) [Example 57, N-(2-((cis)-4-(2-chloro-4-fluorophenyl)cyclohexyl)ethyl)-3-fluorotetrahydro-2H-pyran-4-amine]
The IC50 of the first is higher: 0.001 to 0.01 µM for the first, less than 0.001 µM for the second.

First: Clc1cccc(Cl)c1C1CCC(CCNC2CCOCC2)CC1 (single isomer, unassigned) [Example 8, N-(2-((cis)-4-(2,6-dichlorophenyl)cyclohexyl)ethyl)tetrahydro-2H-pyran-4-amine]
Second: Fc1cnc([C@H]2CC[C@H](CCNC3CCOCC3)CC2)nc1 [Example 12, N-(2-((trans)-4-(5-fluoropyrimidin-2-yl)cyclohexyl)ethyl)tetrahydro-2H-pyran-4-amine]
The IC50 of the first is lower: 0.001 to 0.01 µM for the first, greater than 1 µM for the second.

First: Cc1c(F)c(F)ccc1[C@H]1CC[C@H](CCNC2(C(N)=O)CCOCC2)CC1 [Example 49, 4-((2-((trans)-4-(3,4-difluoro-2-methylphenyl)cyclohexyl)ethyl)amino)tetrahydro-2H-pyran-4-carboxamide]
Second: NC(=O)C1(NCCC2CCC(c3cccc(F)c3Cl)CC2)CCCC1 (stereo not shown) [Example 114, 1-({2-[4-(2-Chloro-3-fluorophenyl)cyclohexyl]ethyl}amino)cyclopentane-1-carboxamide]
The IC50 of the first is lower: 0.1 to 1 µM for the first, greater than 1 µM for the second.

CNC(=O)C1(NCC[C@H]2CC[C@@H](c3ncc(F)cc3C(F)(F)F)CC2)CCOCC1 [Example 50, 4-((2-((cis)-4-(5-fluoro-3-(trifluoromethyl)pyridin-2-yl)cyclohexyl)ethyl)amino)-N-methyltetrahydro-2H-pyran-4-carboxamide] and CNC(=O)C1(NCC[C@H]2CC[C@H](c3ncc(F)cc3C(F)(F)F)CC2)CCOCC1 [Example 51, 4-((2-((trans)-4-(5-fluoro-3-(trifluoromethyl)pyridin-2-yl)cyclohexyl)ethyl)amino)-N-methyltetrahydro-2H-pyran-4-carboxamide] cannot be ordered by IC50: greater than 1 µM for the first, greater than 1 µM for the second.

Cc1nccnc1[C@H]1CC[C@H](CCNC2CCOCC2)CC1 [Example 88, N-(2-((trans)-4-(3-methylpyrazin-2-yl)cyclohexyl)ethyl)tetrahydro-2H-pyran-4-amine] and Cc1cccnc1C1CCC(CCNC2CCN(C)CC2)CC1 (stereo not shown) [Example 182, 1-Methyl-N-{2-[4-(3-methylpyridin-2-yl)cyclohexyl]ethyl}piperidin-4-amine] cannot be ordered by IC50: greater than 1 µM for the first, greater than 1 µM for the second.

CC1(NCCC2CCC(c3cccc(F)c3Cl)CC2)CCCC1 (stereo not shown) [Example 106, N-{2-[4-(2-Chloro-3-fluorophenyl)cyclohexyl]ethyl}-1-methylcyclopentan-1-amine] and Cc1ccncc1C1CCC(CCNC2(C)CCCC2)CC1 (stereo not shown) [Example 111, 1-Methyl-N-{2-[4-(4-methylpyridin-3-yl)cyclohexyl]ethyl}cyclopentan-1-amine] cannot be ordered by IC50: greater than 1 µM for the first, greater than 1 µM for the second.

NC(=O)C1(NCCC2CCC(c3ncccc3Cl)CC2)CCCC1 (stereo not shown) [Example 116, 1-({2-[4-(3-Chloropyridin-2-yl)cyclohexyl]ethyl}amino)cyclopentane-1-carboxamide] and Cc1cccnc1C1CCC(CCNC2(C(N)=O)CCCC2)CC1 (stereo not shown) [Example 117, 1-({2-[4-(3-Methylpyridin-2-yl)cyclohexyl]ethyl}amino)cyclopentane-1-carboxamide] cannot be ordered by IC50: greater than 1 µM for the first, greater than 1 µM for the second.

Cc1ccncc1C1CCC(CCNC2(C(N)=O)CCCC2)CC1 (stereo not shown) [Example 118, 1-({2-[4-(4-Methylpyridin-3-yl)cyclohexyl]ethyl}amino)cyclopentane-1-carboxamide] and Cc1cnccc1C1CCC(CCNC2(C(N)=O)CCCC2)CC1 (stereo not shown) [Example 123, 1-({2-[4-(3-Methylpyridin-4-yl)cyclohexyl]ethyl}amino)cyclopentane-1-carboxamide] cannot be ordered by IC50: greater than 1 µM for the first, greater than 1 µM for the second.

Cc1cnccc1C1CCC(CCNC2(C)CCCC2)CC1 (stereo not shown) [Example 121, 1-Methyl-N-{2-[4-(3-methylpyridin-4-yl)cyclohexyl]ethyl}cyclopentan-1-amine] and Cc1cnccc1C1CCC(CCNC2(C)CCOCC2)CC1 (stereo not shown) [Example 139, 4-Methyl-N-{2-[4-(3-methylpyridin-4-yl)cyclohexyl]ethyl}oxan-4-amine] cannot be ordered by IC50: greater than 1 µM for the first, greater than 1 µM for the second.

COCC1(NCCC2CCC(c3ncccc3Cl)CC2)CCOCC1 (stereo not shown) [Example 146, N-{2-[4-(3-Chloropyridin-2-yl)cyclohexyl]ethyl}-4-(methoxymethyl)oxan-4-amine] and CN1CCC(NCCC2CCC(c3ncccc3Cl)CC2)CC1 (stereo not shown) [Example 181, N-{2-[4-(3-Chloropyridin-2-yl)cyclohexyl]ethyl}-1-methylpiperidin-4-amine] cannot be ordered by IC50: greater than 1 µM for the first, greater than 1 µM for the second.

CC(=O)N1CCC(NCCC2CCC(c3cccc(F)c3Cl)CC2)CC1 (stereo not shown) [Example 171, 1-[4-({2-[4-(2-Chloro-3-fluorophenyl)cyclohexyl]ethyl}amino)piperidin-1-yl]ethan-1-one] and CN1CCC(NCCC2CCC(c3cccc(F)c3Cl)CC2)CC1 (stereo not shown) [Example 179, N-{2-[4-(2-Chloro-3-fluorophenyl)cyclohexyl]ethyl}-1-methylpiperidin-4-amine] cannot be ordered by IC50: greater than 1 µM for the first, greater than 1 µM for the second.

CC(=O)N1CCC(NCCC2CCC(c3ncc(F)cc3Cl)CC2)CC1 (stereo not shown) [Example 172, 1-[4-({2-[4-(3-Chloro-5-fluoropyridin-2-yl)cyclohexyl]ethyl}amino)piperidin-1-yl]ethan-1-one] and CC(=O)N1CCC(NCCC2CCC(c3ncccc3Cl)CC2)CC1 (stereo not shown) [Example 173, 1-[4-({2-[4-(3-Chloropyridin-2-yl)cyclohexyl]ethyl}amino)piperidin-1-yl]ethan-1-one] cannot be ordered by IC50: greater than 1 µM for the first, greater than 1 µM for the second.

CC(=O)N1CCC(NCCC2CCC(c3ncccc3C)CC2)CC1 (stereo not shown) [Example 174, 1-[4-({2-[4-(3-Methylpyridin-2-yl)cyclohexyl]ethyl}amino)piperidin-1-yl]ethan-1-one] and CC(=O)N1CCC(NCCC2CCC(c3cnccc3C)CC2)CC1 (stereo not shown) [Example 175, 1-[4-({2-[4-(4-Methylpyridin-3-yl)cyclohexyl]ethyl}amino)piperidin-1-yl]ethan-1-one] cannot be ordered by IC50: greater than 1 µM for the first, greater than 1 µM for the second.

CC(=O)N1CCC(NCCC2CCC(c3cc(F)ccc3Cl)CC2)CC1 (stereo not shown) [Example 178, 1-[4-({2-[4-(2-Chloro-5-fluorophenyl)cyclohexyl]ethyl}amino)piperidin-1-yl]ethan-1-one] and Cc1cnccc1C1CCC(CCNC2CCN(C)CC2)CC1 (stereo not shown) [Example 187, 1-Methyl-N-{2-[4-(3-methylpyridin-4-yl)cyclohexyl]ethyl}piperidin-4-amine] cannot be ordered by IC50: greater than 1 µM for the first, greater than 1 µM for the second.
